Test results: patent US20110251134A1, “COMBINATION OF (A) A DNA TOPOSOMERASE INHIBITOR AND (B) AN IAP INHIBITOR” (priority 2004, published 2011)

Key:
melanoma model = test: growth in a melanoma model; format: cell-based
caspase-3 = caspase-3 activity in a breast tumor model; format: cell-based
Procedure: In a breast tumor model, both compound C and topotecan (1 nM) individually increase caspase-3 activity less than two fold over the control. A nearly twelve fold increase in caspase-3 activity is seen with the same amount of compound C at a concentration of about 1 nM topotecan.

Compound: CC[C@@]1(O)C(=O)OCc2c1cc1n(c2=O)Cc2cc3ccccc3nc2-1 [camptothecin, Camptothecin]
- growth (melanoma model; camptothecin 5 nM alone): about 50 % of control

Compound: CN[C@@H](C)C(=O)N[C@H](C(=O)N1C[C@@H](NC(=O)CC2CCCCC2)C[C@H]1C(=O)NCCc1ccccc1)C(C)C [compound C]
- increase in caspase-3 activity over the control (caspase-3; compound C alone): less than two

Compound: CN[C@@H](C)C(=O)N[C@H](C(=O)N1CCC[C@H]1C(=O)NC(Cc1ccccc1)Cc1ccccc1)C(C)C [compound D]
- growth (melanoma model; compound D 250 nM alone): about 90 % of control

Compound: CC[C@@]1(O)C(=O)OCc2c1cc1n(c2=O)Cc2cc3c(CN(C)C)c(O)ccc3nc2-1 [topotecan]
- increase in caspase-3 activity over the control (caspase-3; topotecan 1 nM alone): less than two
